{"source": "patent US20020160981A1", "about": "“Compositions containing an association of aspirin and an anti-Xz oligosaccharide and use of an anti-Xa oligosaccharide optionally in combination with aspirin” (Sanofi-Synthelabo, priority 1997, published 2002)", "key": {"[1]": {"tested_on": "Thrombin-antithrombin complexes", "assay": "thrombin-antithrombin complexes levels (TAT) in PTCA patients", "format": "in vivo, human", "conditions": "2 hours after PS injection; fell from 21.9±18.7 before"}, "[2]": {"tested_on": "prothrombin fragment 1+2", "assay": "prothrombin fragment 1+2 levels in PTCA patients", "format": "in vivo, human", "conditions": "2 hours after PS injection; fell from 2.08±1.04 before"}, "[3]": {"tested_on": "patients undergoing a transluminal angioplasty of the coronaries", "assay": "pilot clinical study in patients undergoing PTCA: thrombus formation at PTCA sites and TIMI flow in target vessel", "format": "in vivo, human", "conditions": "71 patients", "description": "A single dose of 12 mg of PS via the intravenous route and 500 mg of aspirin, via the intravenous route, was administered to the patients.\nTo assess the antithrombotic activity 71 patients with stable angina (26), recent unstable angina (11) or recent myocardial infarction (34) with type A or B coronary lesions underwent PTCA with a single 12 mg PS i.v. bolus injection and 500 mg i.v. aspirin. Angiography was repeated 24 h after PTCA. The endpoints were thrombus formation at PTCA sites and the thrombolysis in myocardial infarction (TIMI) flow in target vessel. Heparin was not allowed before, during and within 24 h after PTCA."}, "[4]": {"assay": "activated clotting time (ACT) in PTCA patients", "format": "in vivo, human", "conditions": "after 12 mg PS i.v. and 500 mg i.v. aspirin"}, "[5]": {"tested_on": "factor Xa"}, "[6]": {"conditions": "single 12 mg PS i.v. bolus and 500 mg i.v. aspirin, no heparin"}}}
{"smiles": "CO[C@H]1OC(COS(=O)(=O)O)[C@@H](O[C@@H]2OC(C(=O)O)[C@H](O[C@@H]3OC(COS(=O)(=O)O)[C@@H](O[C@@H]4OC(C(=O)O)[C@@H](O[C@H]5OC(COS(=O)(=O)O)[C@@H](O)C(O)C5NS(=O)(=O)O)C(O)C4O)C(OS(=O)(=O)O)C3NS(=O)(=O)O)C(O)C2OS(=O)(=O)O)C(O)C1NS(=O)(=O)O", "note": "(stereo partly drawn) [PS, methyl O-(2-deoxy-2-sulphoamino-6-O-sulpho-α-D-gluco-pyranosyl)-(1→4)-O-(β-D-glucopyranosyluronic acid)-(1→4)-O-(2-deoxy-2-sulphoamino-3,6-di-O-sulpho-α-D-glucopyranosyl)-(1→4)-O-(2-O-sulpho-α-L-idopyranosyl-uronic acid)-(1→4)-2-deoxy-2-sulphoamino-6-O-sulpho-α-D-glucopyranoside]", "values": [{"measurement": "Thrombin-antithrombin complexes levels (TAT)", "setting": "[1]", "result": "4.8 ± 3.8", "unit": "µg/L"}, {"measurement": "prothrombin fragment 1+2", "setting": "[2]", "result": "1.54 ± 82", "unit": "ng/mL"}, {"measurement": "major bleeding", "setting": "[3]; 12 mg PS i.v. and 500 mg i.v. aspirin", "result": "No major bleeding occurred"}, {"measurement": "Acute thrombotic closure at dissected PTCA site", "setting": "[3]; [6]", "result": 1, "unit": "patient"}, {"measurement": "distal embolization of a thrombus containing plaque", "setting": "[3]; [6]", "result": 1, "unit": "patient"}, {"measurement": "TIMI 3 flow without thrombus at PTCA site", "setting": "[3]; at 24 h after PTCA, 12 mg PS i.v. and 500 mg i.v. aspirin", "result": 71, "unit": "patients"}, {"measurement": "activated clothing time ACT", "setting": "[4]", "result": "remained unchanged"}, {"measurement": "Anti-Xa activity, peak", "setting": "[5]; 10 min. after 12 mg PS i.v. bolus (with 500 mg i.v. aspirin)", "result": "1.20±0.29", "unit": "U anti-Xa/ml"}, {"measurement": "Anti-Xa activity, maintained on average", "setting": "[5]; 2 hours after PS administration, 12 mg i.v. (with 500 mg i.v. aspirin)", "result": "0.87 ±0.14", "unit": "U anti-Xa/ml"}]}
